{"source": "patent US20230131025A1", "about": "“QUINOLYL PHOSPHINE OXIDE COMPOUND, AND COMPOSITION AND APPLICATION THEREOF” (Betta Pharmaceuticals Co., Ltd., priority 2020, published 2023)", "key": {"[1]": {"target": "EGFR WT (Homo sapiens, UniProt P00533)", "sequence (P00533 25-1210)": "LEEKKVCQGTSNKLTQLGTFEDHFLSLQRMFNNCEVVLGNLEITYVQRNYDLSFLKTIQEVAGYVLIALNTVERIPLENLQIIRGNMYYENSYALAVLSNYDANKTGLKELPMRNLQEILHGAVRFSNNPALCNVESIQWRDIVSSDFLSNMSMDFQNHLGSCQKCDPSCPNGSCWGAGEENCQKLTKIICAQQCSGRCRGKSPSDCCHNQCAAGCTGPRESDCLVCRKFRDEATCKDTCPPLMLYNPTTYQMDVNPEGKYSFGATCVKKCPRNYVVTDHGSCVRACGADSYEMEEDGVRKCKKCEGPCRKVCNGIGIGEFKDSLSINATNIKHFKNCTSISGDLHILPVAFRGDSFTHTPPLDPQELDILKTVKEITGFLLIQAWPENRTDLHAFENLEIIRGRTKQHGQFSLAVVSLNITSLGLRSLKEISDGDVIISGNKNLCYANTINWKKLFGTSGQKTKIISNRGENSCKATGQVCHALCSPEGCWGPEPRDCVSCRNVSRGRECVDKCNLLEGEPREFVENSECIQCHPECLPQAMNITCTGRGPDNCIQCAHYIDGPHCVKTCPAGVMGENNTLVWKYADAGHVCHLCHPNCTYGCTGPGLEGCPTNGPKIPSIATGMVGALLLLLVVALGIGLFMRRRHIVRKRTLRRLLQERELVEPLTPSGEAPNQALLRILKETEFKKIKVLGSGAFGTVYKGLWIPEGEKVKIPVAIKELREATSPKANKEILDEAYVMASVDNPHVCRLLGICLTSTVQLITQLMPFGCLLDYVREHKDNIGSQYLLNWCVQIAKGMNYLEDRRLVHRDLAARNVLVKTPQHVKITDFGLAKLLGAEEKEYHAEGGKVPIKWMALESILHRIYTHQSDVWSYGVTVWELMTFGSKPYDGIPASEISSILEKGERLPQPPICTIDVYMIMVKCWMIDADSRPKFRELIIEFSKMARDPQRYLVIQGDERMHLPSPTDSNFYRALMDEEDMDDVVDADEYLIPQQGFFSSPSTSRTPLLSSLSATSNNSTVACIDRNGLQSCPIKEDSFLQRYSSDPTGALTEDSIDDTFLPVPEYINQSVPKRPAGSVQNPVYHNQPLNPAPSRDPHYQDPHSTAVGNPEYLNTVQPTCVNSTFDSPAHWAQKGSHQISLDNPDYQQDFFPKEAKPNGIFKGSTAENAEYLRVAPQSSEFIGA", "assay": "Kinase inhibition assay (mobility shift)", "type": "biochemical", "in_short": "(§1)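 Caliper mobility-shift read of substrate conversion after kinase-compound preincubation 10 min at room temperature, then ATP/substrate addition and reaction at room temperature. Ten-point 3-fold dilutions from 3,000 or 100 nM top; IC50 from variable-slope four-parameter fit of percent inhibition.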"}, "[2]": {"target": "EGFR Δ19del/T790M/C797S (Homo sapiens, UniProt P00533, T790M/C797S, form not given)", "sequence (P00533 with tags, fused parts or gaps DEL746-750/T790M/C797S, form open)": "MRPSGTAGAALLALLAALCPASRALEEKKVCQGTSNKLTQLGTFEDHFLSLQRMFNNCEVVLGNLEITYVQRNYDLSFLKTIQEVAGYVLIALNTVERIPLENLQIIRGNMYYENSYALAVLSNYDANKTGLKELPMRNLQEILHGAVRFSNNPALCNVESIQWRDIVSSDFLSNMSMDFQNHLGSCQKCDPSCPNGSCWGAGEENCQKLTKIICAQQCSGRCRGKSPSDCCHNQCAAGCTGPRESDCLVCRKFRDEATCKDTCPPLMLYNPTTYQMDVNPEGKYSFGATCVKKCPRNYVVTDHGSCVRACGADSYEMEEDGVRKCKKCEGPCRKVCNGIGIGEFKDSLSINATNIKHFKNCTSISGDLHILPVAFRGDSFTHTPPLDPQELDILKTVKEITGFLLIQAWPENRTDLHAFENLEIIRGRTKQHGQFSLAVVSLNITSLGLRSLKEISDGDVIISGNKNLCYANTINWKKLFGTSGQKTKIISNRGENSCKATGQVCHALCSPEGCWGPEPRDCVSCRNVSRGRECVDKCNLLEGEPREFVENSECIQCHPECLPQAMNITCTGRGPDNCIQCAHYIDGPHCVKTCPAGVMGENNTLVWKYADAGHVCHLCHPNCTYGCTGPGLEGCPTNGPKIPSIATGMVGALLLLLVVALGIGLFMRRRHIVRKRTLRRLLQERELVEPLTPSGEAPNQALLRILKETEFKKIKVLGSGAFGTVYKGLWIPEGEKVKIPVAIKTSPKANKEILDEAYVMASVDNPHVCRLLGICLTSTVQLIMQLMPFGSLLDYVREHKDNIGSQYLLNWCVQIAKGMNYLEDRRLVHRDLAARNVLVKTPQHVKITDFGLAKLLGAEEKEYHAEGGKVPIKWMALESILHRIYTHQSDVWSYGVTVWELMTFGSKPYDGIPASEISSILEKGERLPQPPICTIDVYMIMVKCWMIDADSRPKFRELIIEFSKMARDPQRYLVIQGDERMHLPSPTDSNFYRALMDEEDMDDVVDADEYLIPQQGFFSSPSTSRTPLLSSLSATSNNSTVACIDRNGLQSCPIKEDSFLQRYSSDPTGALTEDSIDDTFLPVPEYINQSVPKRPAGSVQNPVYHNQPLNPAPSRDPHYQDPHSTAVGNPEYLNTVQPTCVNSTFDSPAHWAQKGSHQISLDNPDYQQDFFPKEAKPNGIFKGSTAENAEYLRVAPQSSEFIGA", "assay": "Kinase inhibition assay (mobility shift)", "type": "biochemical", "in_short": "as §1"}, "[3]": {"target": "IGF1R (Homo sapiens, UniProt P08069)", "sequence (P08069 31-1367, species assumed)": "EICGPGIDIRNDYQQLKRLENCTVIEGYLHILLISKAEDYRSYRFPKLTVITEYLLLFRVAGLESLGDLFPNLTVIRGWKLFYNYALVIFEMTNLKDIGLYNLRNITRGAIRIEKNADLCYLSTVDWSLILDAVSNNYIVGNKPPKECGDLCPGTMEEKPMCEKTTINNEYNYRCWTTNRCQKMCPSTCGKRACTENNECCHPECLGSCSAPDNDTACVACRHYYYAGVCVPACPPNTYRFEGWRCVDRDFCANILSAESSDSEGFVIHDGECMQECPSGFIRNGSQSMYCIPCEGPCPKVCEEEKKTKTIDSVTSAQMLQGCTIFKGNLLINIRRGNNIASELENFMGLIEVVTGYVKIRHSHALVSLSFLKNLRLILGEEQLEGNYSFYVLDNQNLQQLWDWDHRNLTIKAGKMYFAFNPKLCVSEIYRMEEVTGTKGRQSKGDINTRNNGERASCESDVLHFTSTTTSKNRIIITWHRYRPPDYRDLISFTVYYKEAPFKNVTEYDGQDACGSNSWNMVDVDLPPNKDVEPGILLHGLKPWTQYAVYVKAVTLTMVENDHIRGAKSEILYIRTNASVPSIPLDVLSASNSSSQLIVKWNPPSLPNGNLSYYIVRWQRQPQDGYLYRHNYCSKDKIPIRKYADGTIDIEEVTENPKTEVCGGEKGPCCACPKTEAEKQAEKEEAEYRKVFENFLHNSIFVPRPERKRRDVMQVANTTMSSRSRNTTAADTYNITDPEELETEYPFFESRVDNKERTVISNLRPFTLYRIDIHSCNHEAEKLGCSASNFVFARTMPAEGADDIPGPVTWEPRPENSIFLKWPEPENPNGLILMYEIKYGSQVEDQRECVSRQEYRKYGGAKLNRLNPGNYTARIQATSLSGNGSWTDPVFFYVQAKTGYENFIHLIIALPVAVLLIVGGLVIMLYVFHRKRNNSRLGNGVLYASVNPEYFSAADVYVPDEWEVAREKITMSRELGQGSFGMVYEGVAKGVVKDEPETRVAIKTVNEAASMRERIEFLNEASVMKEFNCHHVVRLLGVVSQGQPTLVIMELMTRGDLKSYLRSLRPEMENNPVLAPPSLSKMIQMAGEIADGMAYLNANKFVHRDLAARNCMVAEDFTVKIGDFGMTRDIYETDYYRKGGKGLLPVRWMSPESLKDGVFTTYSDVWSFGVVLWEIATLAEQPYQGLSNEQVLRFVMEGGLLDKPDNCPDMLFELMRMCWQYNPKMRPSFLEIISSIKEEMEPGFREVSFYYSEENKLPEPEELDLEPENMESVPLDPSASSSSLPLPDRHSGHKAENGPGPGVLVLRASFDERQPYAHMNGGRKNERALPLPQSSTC", "assay": "Kinase inhibition assay (mobility shift)", "type": "biochemical", "in_short": "as §1"}, "[4]": {"system": "human epidermal cancer cells A431 carrying EGFR WT", "assay": "Cell proliferation experiment (CellTiter Glo, 72 hours)", "type": "cell-based", "conditions": "Homo sapiens, A-431", "in_short": "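Cells seeded at 2000 or 3000/well and exposed 72 h to 9-point 3-fold dilutions, top final 10000 nM or 1111 nM, 0.1% DMSO. Viability by CellTiter-Glo luminescence. Inhibition relative to cell and medium controls; IC50 by four-parameter nonlinear regression.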"}, "[5]": {"system": "Ba/F3-Δ19del/T790M/C797S-derived xenograft (CDX)", "assay": "In vivo efficacy experiment, xenograft tumor growth", "design": "species or system BALB/c nude mice", "experimental": "In vivo efficacy experiments were performed on Ba/F3-Δ19del/T790M/C797S-derived xenograft (CDX) BALB/c nude mice. […] They were fed in an SPF environment, with each cage individually ventilated (6 mice per cage). […] Each mouse was subcutaneously inoculated with 0.1 mL cells (5×10^6 cells, the volume ratio of matrigel to cell was 1:1) on the right upper limb. When the tumor volume was about 150 mm^3, the grouped mice were separately administered with compound J-022 (10 mg/kg, 100 mg/kg, 150 mg/kg) orally QD for 15 consecutive days. Tumor diameters were measured with vernier calipers twice a week. The volume of tumor is calculated as: V=0.5a×b^2, wherein a and b represent the long diameter and short diameter of the tumor, respectively. The tumor growth inhibition rate TGI (%) was calculated to evaluate the tumor inhibitory effect of the compounds. TGI (%) was calculated with the following formula: TGI (%)=(1−(the average tumor volume of the compound treatment group at the end of the administration−the average tumor volume of the compound treatment group at the beginning of the administration)/(the average tumor volume of the solvent control group at the end of treatment−the average tumor volume of the solvent control group at the beginning of treatment))×100%."}}}
{"smiles": "COc1cc(N2CCC(N3CCN(C)CC3)CC2)c(C)cc1Nc1ncc(Br)c(Nc2ccc3nc(C4CC4)ccc3c2P(C)(C)=O)n1", "note": "[Compound J-022, (6-((5-Bromo-2-((2-methoxy-5-methyl-4-(4-(4-methylpiperazin-1-yl)piperidin-1-yl)phenyl)amino)pyrimidin-4-yl)amino)-2-cyclopropylquinolin-5-yl)dimethylphosphine oxide]", "values": [{"measurement": "IC50", "setting": "[1]", "result": 20.2, "unit": "nM"}, {"measurement": "IC50", "setting": "[2]", "result": 0.3, "unit": "nM"}, {"measurement": "IC50", "setting": "[3]", "result": 195, "unit": "nM"}, {"measurement": "IC50", "setting": "[4]", "result": 1130, "unit": "nM"}, {"measurement": "Tumor volume", "setting": "[5]; 10 mg/kg/day oral QD, 0 day", "result": 152, "unit": "mm^3"}, {"measurement": "15 day TGI %", "setting": "[5]; 10 mg/kg/day oral QD, 15 consecutive days", "result": 53, "unit": "%"}, {"measurement": "Tumor volume", "setting": "[5]; 10 mg/kg/day oral QD, 3 day", "result": 183, "unit": "mm^3"}, {"measurement": "Tumor volume", "setting": "[5]; 10 mg/kg/day oral QD, 7 day", "result": 321, "unit": "mm^3"}, {"measurement": "Tumor volume", "setting": "[5]; 10 mg/kg/day oral QD, 10 day", "result": 747, "unit": "mm^3"}, {"measurement": "Tumor volume", "setting": "[5]; 10 mg/kg/day oral QD, 15 day", "result": 1650, "unit": "mm^3"}, {"measurement": "Tumor regression", "setting": "[5]; 100 mg/kg/day or 150 mg/kg/day, 15 consecutive days", "result": "tumor completely regressed"}, {"measurement": "Tumor volume", "setting": "[5]; 100 mg/kg/day oral QD, 0 day", "result": 151, "unit": "mm^3"}, {"measurement": "15 day TGI %", "setting": "[5]; 100 mg/kg/day oral QD, 15 consecutive days", "result": 105, "unit": "%"}, {"measurement": "Tumor volume", "setting": "[5]; 100 mg/kg/day oral QD, 3 day", "result": 99, "unit": "mm^3"}, {"measurement": "Tumor volume", "setting": "[5]; 100 mg/kg/day oral QD, 7 day", "result": 59, "unit": "mm^3"}, {"measurement": "Tumor volume", "setting": "[5]; 100 mg/kg/day oral QD, 10 day", "result": 0, "unit": "mm^3"}, {"measurement": "Tumor volume", "setting": "[5]; 100 mg/kg/day oral QD, 15 day", "result": 0, "unit": "mm^3"}, {"measurement": "Tumor volume", "setting": "[5]; 150 mg/kg/day oral QD, 0 day", "result": 152, "unit": "mm^3"}, {"measurement": "15 day TGI %", "setting": "[5]; 150 mg/kg/day oral QD, 15 consecutive days", "result": 105, "unit": "%"}, {"measurement": "Tumor volume", "setting": "[5]; 150 mg/kg/day oral QD, 3 day", "result": 102, "unit": "mm^3"}, {"measurement": "Tumor volume", "setting": "[5]; 150 mg/kg/day oral QD, 7 day", "result": 4, "unit": "mm^3"}, {"measurement": "Tumor volume", "setting": "[5]; 150 mg/kg/day oral QD, 10 day", "result": 0, "unit": "mm^3"}, {"measurement": "Tumor volume", "setting": "[5]; 150 mg/kg/day oral QD, 15 day", "result": 0, "unit": "mm^3"}, {"measurement": "half effective dose", "setting": "[5]; dose with TGI 53%", "result": 10, "unit": "mg/kg/day"}]}
